Counter-ions that a name gives are not always drawn.
biological target: T1, human α7 nAChR (Homo sapiens, UniProt P36544); assay: α7 nAChR FLIPR (Fluorometric Imaging Plate Reader) Ca2+ assay, agonist EC50; format: cell-based; conditions: GH4C1 cells stably transfected with human α7 nAChR; Fluo-4 Ca2+ fluorescence; Examples 194 to 205 tested as the HCl salt; read-out: pEC50 value (negative logarithm of the agonist EC50) (converted)
T1 construct: host or cells: GH4C1 cells (pituitary tumor, immortalized cell line)
T1 sequence (P36544 23-502): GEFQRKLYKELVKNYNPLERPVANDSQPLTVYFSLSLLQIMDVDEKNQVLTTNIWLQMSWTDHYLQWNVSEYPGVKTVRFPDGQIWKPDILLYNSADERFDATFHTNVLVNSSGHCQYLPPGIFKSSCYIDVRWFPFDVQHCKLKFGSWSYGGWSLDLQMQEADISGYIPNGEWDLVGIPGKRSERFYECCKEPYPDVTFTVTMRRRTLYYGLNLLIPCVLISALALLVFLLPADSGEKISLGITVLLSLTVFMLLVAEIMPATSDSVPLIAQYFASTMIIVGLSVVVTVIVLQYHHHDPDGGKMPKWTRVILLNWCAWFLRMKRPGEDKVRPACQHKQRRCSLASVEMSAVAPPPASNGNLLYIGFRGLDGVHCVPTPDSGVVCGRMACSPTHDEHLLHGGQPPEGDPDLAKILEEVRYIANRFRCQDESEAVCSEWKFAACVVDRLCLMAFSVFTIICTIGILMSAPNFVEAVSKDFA
Experimental: α7 nAChR FLIPR® (Fluorometric Imaging Plate Reader) Assay
Function of the heterologous expressed α7 nAChR was assessed by a FLIPR-Ca^2+ assay. Since nAChRs are non-selective cation channels with high permeability to Ca^2+, these studies were carried out by measuring changes of intracellular Ca^2+ concentration using the Ca^2+-chelating fluorescent dye Fluo-4 and FLIPR® (Fluorometric Imaging Plate Reader) technology.
GH4C1cells (pituitary tumor, immortalized cell line) stably transfected with human α7 nAChR (Biocat ID 96986), were thawed, suspended in growth medium (Ham's Nutrient Mixture F10—Ham's F10, Invitrogen 31550-023, 15% Horse Serum heat inactivated—Invitrogen 26050-047, 2.5% Foetal Bovine Serum—FBS, Gibco 10500-064, 200 μg/ml Hygromycin B—Invitrogen, 10687-010, 10 mg/L Phenol Red—Sigma, P 0290, 1 mM Glutamine—Invitrogen, 25030-024) and plated in 500 cm^2 Triple Flask.
Cells were then incubated at 30° C., 5% CO2 for 72 hours.
On the day of the experiment, cells were washed twice with Assay Buffer (AB) (145 mM NaCl, 5 mM KCl, 1 mM MgCl2, 2 mM CaCl2, 20 mM HEPES, 5.5 mM Glucose pH=7.3) containing 2.5 mM Probenecid. Changes in the intracellular Ca^2+ content of stably transfected cells were measured using the Ca^2+ chelating dye Fluo-4 (Tef Labs 0152) in conjunction with a FLIPR® (Molecular Devices). The cell permeant dye Fluo-4 was prepared to a concentration of 1 mM in 100% DMSO and 10% Pluronic acid. The dye was then diluted with AB to a final concentration of 2 μM and placed on the cells. After 45-60 minutes dye loading incubation at 37° C., the unincorporated dye was removed from the cells by washing (80 μL, 3 times) with AB, and a final volume of 30 μL/well of AB was left in each well.
Plates containing test compounds (dissolved in 100% DMSO at 2 mM and serially diluted with DMSO) were copied into “daughter” plates (1 μL/well dispensation). Just prior to starting the assay, the “daughter” plate was diluted with 50 μL/well of AB.
The plates were then placed in the FLIPR®, and cell fluorescence was determined before drug addition (30 seconds) and monitored (excitation 488 nm, emission 510-580 nm) immediately following exposure to compounds. Maximum fluorescence values were recorded and fitted for agonist EC50 calculations.
The results are expressed as pEC50 values. A pEC50 is the negative logarithm of the agonist EC50 calculation as determined in the α7 nAChR FLIPR® assay. […] Variations in pEC50 may arise between tests.

`O=C(Nc1ccc(-c2nnc(NCCCCN3CCCCC3)o2)c(C(F)(F)F)c1)c1ccccc1F` [Example 90, 2-fluoro-N-[4-(5-{[4-(1-piperidinyl)butyl]amino]-1,3,4-oxadiazol-2-yl)-3-(trifluoromethyl)phenyl]benzamide] and `CCc1cc(NC(=O)c2ccccc2F)ccc1-c1nnc(NCCCCN2CCCCC2)o1` [Example 168, N-[3-ethyl-4-(5-{[4-(1-piperidinyl)butyl]amino}-1,3,4-oxadiazol-2-yl)phenyl]-2-fluorobenzamide] cannot be ordered by EC50: ≤ 0.1 µM for the first, ≤ 1 µM for the second.

`O=C(Nc1ccc(-c2nnc(NCCCN3CCCCC3)o2)c(F)c1)c1ccccc1` [Example 113, N-[3-fluoro-4-(5-{[3-(1-piperidinyl)propyl]amino}-1,3,4-oxadiazol-2-yl)phenyl]benzamide] and `O=C(Nc1ccc(-c2nnc(NCCCCN3CCCC3)o2)c(F)c1)c1ccccc1` [Example 108, N-[3-fluoro-4-(5-{[4-(1-pyrrolidinyl)butyl]amino}-1,3,4-oxadiazol-2-yl)phenyl]benzamide] cannot be ordered by EC50: ≤ 1 µM for the first, ≤ 0.1 µM for the second.

`CCN(CC)CCCNc1nnc(-c2ccc(NC(=O)CC(C)C)cc2OC)o1` [Example 230, N-[4-(5-{[3-(diethylamino)propyl]amino}-1,3,4-oxadiazol-2-yl)-3-(methyloxy)phenyl]-3-methylbutanamidetrifluoroacetate] and `CCN(CC)CCCNc1nnc(-c2ccc(NC(=O)C3CC3)cc2OC)o1` [Example 231, N-[4-(5-{[3-(diethylamino)propyl]amino}-1,3,4-oxadiazol-2-yl)-3-(methyloxy)phenyl]cyclopro-panecarboxamidetrifluoroacetate] cannot be ordered by EC50: ≤ 1 µM for the first, ≤ 1 µM for the second.

`O=C(Nc1ccc(-c2nnc(NCCCCN3CCCCC3)o2)c(C(F)(F)F)c1)C1CCCCC1` [Example 62, N-[4-(5-{[4-(1-piperidinyl)butyl]amino}-1,3,4-oxadiazol-2-yl)-3-(trifluoromethyl)phenyl]cyclohexanecarboxamide] and `O=C(Nc1ccc(-c2nnc(NCCCCN3CCCCC3)o2)c(Cl)c1)C1CCCCC1` [Example 164, N-[3-chloro-4-(5-{[4-(1-piperidinyl)butyl]amino}-1,3,4-oxadiazol-2-yl)phenyl]cyclohexanecarboxamide] cannot be ordered by EC50: ≤ 0.1 µM for the first, ≤ 0.1 µM for the second.

`O=C(Nc1ccc(-c2nnc(NCCCN3CCCCC3)o2)cc1)c1cccnc1` [Example 13, N-[4-(5-{[3-(1-Piperidinyl)propyl]amino}-1,3,4-oxadiazol-2-yl)phenyl]-3-pyridinecarboxamidehydrochloride] and `O=C(Nc1ccc(-c2nnc(NCCCN3CCCCC3)o2)cc1)c1cccs1` [Example 8, N-[4-(5-{[3-(1-Piperidinyl)propyl]amino}-1,3,4-oxadiazol-2-yl)phenyl]-2-thiophenecarboxamidehydrochloride] cannot be ordered by EC50: ≤ 1 µM for the first, ≤ 1 µM for the second.

`CCN(CC)CCCNc1nnc(-c2ccc(NC(=O)c3ccccc3F)cc2F)o1` [Example 50, N-[4-(5-{[3-(diethylamino)propyl]amino}-1,3,4-oxadiazol-2-yl)-3-fluorophenyl]-2-fluorobenzamide] and `CCN(CC)CCCNc1nnc(-c2ccc(NC(=O)c3ccccc3)cc2F)o1` [Example 111, N-[4-(5-{[3-(diethylamino)propyl]amino}-1,3,4-oxadiazol-2-yl)-3-fluorophenyl]benzamide] cannot be ordered by EC50: ≤ 1 µM for the first, ≤ 1 µM for the second.

`O=C(Nc1ccc(-c2nnc(NCCCCN3CCOCC3)o2)c(Cl)c1)C1CCCCC1` [Example 161, N-[3-chloro-4-(5-{[4-(4-morpholinyl)butyl]amino}-1,3,4-oxadiazol-2-yl)phenyl]cyclohexanecarboxamide] and `O=C(Nc1ccc(-c2nnc(NCCCCN3CCCC3)o2)c(Cl)c1)C1CCCCC1` [Example 158, N-[3-chloro-4-(5-{[4-(1-pyrrolidinyl)butyl]amino}-1,3,4-oxadiazol-2-yl)phenyl]cyclohexanecarboxamide] cannot be ordered by EC50: ≤ 1 µM for the first, ≤ 0.1 µM for the second.

`O=C(Nc1ccc(-c2nnc(NCCCN3CCCCC3)o2)cc1)C1CCOCC1` [Example 193, N-[4-(5-{[3-(1-piperidinyl)propyl]amino}-1,3,4-oxadiazol-2-yl)phenyl]tetrahydro-2H-pyran-4-carboxamide] and `O=C(Nc1ccc(-c2nnc(NCCCN3CCCCC3)o2)c(Cl)c1)C1CCCCC1` [Example 163, N-[3-chloro-4-(5-{[3-(1-piperidinyl)propyl]amino}-1,3,4-oxadiazol-2-yl)phenyl]cyclohexanecarboxamide] cannot be ordered by EC50: ≤ 1 µM for the first, ≤ 1 µM for the second.

`CCN(CC)CCCCNc1nnc(-c2ccc(NC(=O)c3ccccc3F)cc2C(F)(F)F)o1` [Example 89, N-[4-(5-{[4-(diethylamino)butyl]amino}-1,3,4-oxadiazol-2-yl)-3-(trifluoromethyl)phenyl]-2-fluorobenzamide] and `CCN(CC)CCCCNc1nnc(-c2ccc(NC(=O)c3ccccc3)cc2F)o1` [Example 112, N-[4-(5-{[4-(diethylamino)butyl]amino}-1,3,4-oxadiazol-2-yl)-3-fluorophenyl]benzamide] cannot be ordered by EC50: ≤ 0.1 µM for the first, ≤ 0.1 µM for the second.

`COc1cc(NC(=O)C2CCCCC2)ccc1-c1nnc(NCCCN2CCCCC2)o1` [Example 28, N-[3-(methyloxy)-4-(5-{[3-(1-piperidinyl)propyl]amino}-1,3,4-oxadiazol-2-yl)phenyl]cyclohexanecarboxamide] and `COc1cc(NC(=O)C2CCCC2)ccc1-c1nnc(NCCCN2CCOCC2)o1` [Example 234, N-[3-(methyloxy)-4-(5-{[3-(4-morpholinyl)propyl]amino}-1,3,4-oxadiazol-2-yl)phenyl]cyclopentane-carboxamidetrifluoroacetate] cannot be ordered by EC50: ≤ 1 µM for the first, ≤ 1 µM for the second.

`COc1cc(NC(=O)c2ccccc2)ccc1-c1nnc(NCCCN2CCCCC2)o1` [Example 71, N-[3-(methyloxy)-4-(5-{[3-(1-piperidinyl)propyl]amino}-1,3,4-oxadiazol-2-yl)phenyl]benzamide] and `O=C(Nc1ccc(-c2nnc(NCCCN3CCCC3)o2)c(C(F)(F)F)c1)c1ccccc1` [Example 91, N-[4-(5-{[3-(1-pyrrolidinyl)propyl]amino}-1,3,4-oxadiazol-2-yl)-3-(trifluoromethyl)phenyl]benzamide] cannot be ordered by EC50: ≤ 0.1 µM for the first, ≤ 1 µM for the second.

`CCN(CC)CCCCNc1nnc(-c2ccc(NC(=O)C3CCCCC3)cc2Cl)o1` [Example 160, N-[3-chloro-4-(5-{[4-(diethylamino)butyl]amino}-1,3,4-oxadiazol-2-yl)phenyl]cyclohexanecarboxamide] and `CCN(CC)CCCCNc1nnc(-c2ccc(NC(=O)c3ccccc3)cc2)o1` [Example 119, N-[4-(5-{[4-(diethylamino)butyl]amino}-1,3,4-oxadiazol-2-yl)phenyl]benzamide] cannot be ordered by EC50: ≤ 1 µM for the first, ≤ 0.1 µM for the second.

`CCCC(=O)Nc1ccc(-c2nnc(NCCCN3CCOCC3)o2)c(OC)c1` [Example 199, N-[3-(Methyloxy)-4-(5-{[3-(4-morpholinyl)propyl]amino}-1,3,4-oxadiazol-2-yl)phenyl]butanamide] and `COc1cc(NC(=O)CC(C)C)ccc1-c1nnc(NCCCN2CCOCC2)o1` [Example 229, 3-methyl-N-[3-(methyloxy)-4-(5-{[3-(4-morpholinyl)propyl]amino}-1,3,4-oxadiazol-2-yl)phenyl]butanamidetrifluoroacetate] cannot be ordered by EC50: ≤ 1 µM for the first, ≤ 1 µM for the second.

`O=C(Nc1ccc(-c2nnc(NCCCN3CCOCC3)o2)c(C(F)(F)F)c1)c1ccccc1F` [Example 86, 2-fluoro-N-[4-(5-{[3-(4-morpholinyl)propyl]amino}-1,3,4-oxadiazol-2-yl)-3-(trifluoromethyl)phenyl]benzamide] and `CCc1cc(NC(=O)c2ccccc2F)ccc1-c1nnc(NCCCN2CCOCC2)o1` [Example 167, N-[3-ethyl-4-(5-{[3-(4-morpholinyl)propyl]amino}-1,3,4-oxadiazol-2-yl)phenyl]-2-fluorobenzamide] cannot be ordered by EC50: ≤ 1 µM for the first, ≤ 1 µM for the second.

`O=C(Nc1ccc(-c2nnc(NCCCN3CCN4CCC3CC4)o2)c(F)c1)c1ccccc1` [Example 124, N-[4-(5-{[3-(1,4-diazabicyclo[3.2.2]non-4-yl)propyl]amino}-1,3,4-oxadiazol-2-yl)-3-fluorophenyl]benzamide] was tested, and the EC50 was ≤ 0.1 µM.

same assay, conditions: alpha 7 assay described in the Examples

For `CN(C)CCCN(C)c1nnc(-c2ccc(NC(=O)c3ccccc3F)cc2)o1` [N-(4-{5-[[3-(dimethylamino)propyl](methyl)amino]-1,3,4-oxadiazol-2-yl}phenyl)-2-fluorobenzamide], the “activity in the alpha 7 assay” value was “not found to have activity”.

— patent publication US20090105217A1, “2-PHENYL-5-AMINO-1,3,4-OXADIAZOLES AND THEIR USE AS NICOTINIC ACETYLCHOLINE RECEPTOR LIGANDS” (priority 2007, published 2009)
